{"source": "patent US20100285959A1", "about": "“HERBICIDAL MIXTURES” (priority 2006, published 2010)", "test_in_all_cases": "Test 4 field trial, postemergence", "key": {"[1]": {"test_system": "common lambsquarters (CHEAL)", "type": "in vivo, Chenopodium album", "settings": "clodinafop 56 or fenoxaprop 90 g a.i./ha alone"}, "Russian thistle (SASKR)": {"test_system": "Russian thistle (SASKR)", "type": "in vivo, Salsola kali", "parameters": "scale not given here", "settings": "clodinafop 56 or fenoxaprop 90 g a.i./ha alone", "method": "(§1) A field trial was conducted to evaluate the effects of mixtures of Compound 2 with commercial herbicides on spring wheat (TRZAS, Triticum aestivum L.) and several weed species. Wheat seeds (cv. ‘AC Intrepid’) were planted in late spring season, 3.8 cm deep in a loam soil having 2.7% organic matter and a pH of 7. Plots were 6 m long by 2.5 m wide. The field was managed using no-till practices. The plots were arranged in a randomized complete block design with each treatment being replicated four times. Treatments were applied postemergence 25 days after planting using a backpack sprayer delivering a spray volume of 55 L/ha using a pressure of 276 kPa. […] Compound 2 and clodinafop treatments, alone and in combination, also included a surfactant. Weed species present in the experimental plots in sufficient quantity to be evaluated included wild oat (AVEFA, Avena fatua L.), common lambsquarters (CHEAL, Chenopodium album L.), kochia (KCHSC, Kochia scoparia (L.) Schrad.), wild buckwheat (POLCO, Polygonum convolvulus L.), Russian thistle (SASKR, Salsola kali L. ssp. ruthenica (Iljin) Soo), and field pennycress (THLAR, Thlaspi arvense L.). […] Common lambsquarters was evaluated only at 14 days after application. […] Results are the means of the four replicates."}, "kochia (KCHSC)": {"test_system": "kochia (KCHSC)", "type": "in vivo, Kochia scoparia", "settings": "clodinafop 56 g a.i./ha alone", "method": "as §1"}, "spring wheat (TRZAS)": {"test_system": "spring wheat (TRZAS)", "settings": "clodinafop 56 or fenoxaprop 90 g a.i./ha alone", "method": "as §1"}, "wild oat (AVEFA)": {"test_system": "wild oat (AVEFA)", "type": "in vivo, Avena fatua", "parameters": "scale not given here", "settings": "clodinafop 56 or fenoxaprop 90 g a.i./ha alone", "method": "as §1"}, "wild buckwheat (POLCO)": {"test_system": "wild buckwheat (POLCO)", "type": "in vivo, Polygonum convolvulus", "settings": "clodinafop 56 or fenoxaprop 90 g a.i./ha alone", "method": "as §1"}, "field pennycress (THLAR)": {"test_system": "field pennycress (THLAR)", "type": "in vivo, Thlaspi arvense", "parameters": "scale not given here", "settings": "clodinafop 56 or fenoxaprop 90 g a.i./ha alone", "method": "as §1"}}, "data": [{"smiles": "C[C@@H](Oc1ccc(Oc2ncc(Cl)cc2F)cc1)C(=O)O", "note": "[Clodinafop]", "values": [{"measurement": "CHEAL Obs", "setting": "[1]; 14 DAA", "result": 0}, {"measurement": "CHEAL Obs", "setting": "[1]; 35 DAA", "result": 0}, {"measurement": "SASKR Obs", "setting": "Russian thistle (SASKR); 14 DAA", "result": 0}, {"measurement": "SASKR Obs", "setting": "Russian thistle (SASKR); 35 DAA", "result": 0}, {"measurement": "KCHSC Obs", "setting": "kochia (KCHSC); 14 DAA", "result": 0}, {"measurement": "KCHSC Obs", "setting": "kochia (KCHSC); 35 DAA", "result": 0}, {"measurement": "TRZAS Obs", "setting": "spring wheat (TRZAS); 14 DAA", "result": 0}, {"measurement": "TRZAS Obs", "setting": "spring wheat (TRZAS); 35 DAA", "result": 0}, {"measurement": "TRZAS Obs", "setting": "spring wheat (TRZAS); 55 DAA", "result": 0}, {"measurement": "AVEFA Obs", "setting": "wild oat (AVEFA); 14 DAA", "result": 97}, {"measurement": "AVEFA Obs", "setting": "wild oat (AVEFA); 35 DAA", "result": 99}, {"measurement": "AVEFA Obs", "setting": "wild oat (AVEFA); 55 DAA", "result": 98}, {"measurement": "POLCO Obs", "setting": "wild buckwheat (POLCO); 14 DAA", "result": 0}, {"measurement": "POLCO Obs", "setting": "wild buckwheat (POLCO); 35 DAA", "result": 0}, {"measurement": "THLAR Obs", "setting": "field pennycress (THLAR); 14 DAA", "result": 0}, {"measurement": "THLAR Obs", "setting": "field pennycress (THLAR); 35 DAA", "result": 0}]}]}
